In ChEMBL document CHEMBL1201862, “PubChem BioAssay data set” (2004):
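Grown in 96-well plates, cells were treated for 48 hours with each compound at five concentrations. Insufficient inhibition: endpoint recorded as highest concentration tested. The concentration for 50% growth inhibition is given as GI50.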 Calls of active or inactive are those of the source. No stated cut-off is given here; in the data, active = GI50 up to about 1.1 µM and inactive = higher.

Columns and labels:
Test in all cases: NCI anticancer screen, dose series, 48 h
M14 = tested on: M14
SW-620 = tested on: SW-620
MDA-MB-231 = tested on: MDA-MB-231
UACC-257 = tested on: UACC-257
CCRF-CEM = tested on: CCRF-CEM
HCT-116 = tested on: HCT-116
NCI/ADR-RES = tested on: NCI/ADR-RES
T47D = tested on: T47D
HCT-15 = tested on: HCT-15
MDA-N = tested on: MDA-N
MCF7 = tested on: MCF7
LOX IMVI = tested on: LOX IMVI
786-0 = tested on: 786-0
EKVX = tested on: EKVX
K562 = tested on: K562
HOP-62 = tested on: HOP-62
OVCAR-5 = tested on: OVCAR-5
CAKI-1 = tested on: CAKI-1
RXF 393 = tested on: RXF 393
PC-3 = tested on: PC-3

| SMILES | GI50 (M14) | GI50 (SW-620) | GI50 (MDA-MB-231) | GI50 (UACC-257) | GI50 (CCRF-CEM) | GI50 (HCT-116) | GI50 (NCI/ADR-RES) | GI50 (T47D) | GI50 (HCT-15) [µM] | GI50 (MDA-N) | GI50 (MCF7) | GI50 (LOX IMVI) | GI50 (786-0) | GI50 (EKVX) | GI50 (K562) | GI50 (HOP-62) | GI50 (OVCAR-5) | GI50 (CAKI-1) | GI50 (RXF 393) | GI50 (PC-3) |
| --- | --- | --- | --- | --- | --- | --- | --- | --- | --- | --- | --- | --- | --- | --- | --- | --- | --- | --- | --- | --- |
| COc1ccc(N[S+]([O-])c2c(C)cc(C)cc2C)cc1 (stereo not given) | 77.8 µM (inactive) | 48.2 µM (inactive) | 80.2 µM (inactive) | 70.1 µM (inactive) | > 100 µM (inactive) | 14.4 µM (inactive) | 49.8 µM (inactive) | 34 µM (inactive) | 18.2 | 93.1 µM (inactive) | 56 µM (inactive) | 57 µM (inactive) | 89.5 µM (inactive) | 43.8 µM (inactive) | 42.1 µM (inactive) | 72.1 µM (inactive) | > 100 µM (inactive) | – | – | – |
| Cn1c2ccccc2n2c(=O)c(-c3ccc(Cl)cc3)nnc12 | > 100 µM (inactive) | > 100 µM (inactive) | 51.2 µM (inactive) | > 100 µM (inactive) | > 100 µM (inactive) | > 100 µM (inactive) | > 100 µM (inactive) | > 100 µM (inactive) | > 100 | > 100 µM (inactive) | > 100 µM (inactive) | > 100 µM (inactive) | > 100 µM (inactive) | > 100 µM (inactive) | – | – | > 100 µM (inactive) | > 100 µM (inactive) | > 100 µM (inactive) | – |
| NC(N)=NCc1ccc2c(c1)OCO2 | > 100 µM (inactive) | > 100 µM (inactive) | 95.3 µM (inactive) | – | 94 µM (inactive) | 78.3 µM (inactive) | > 100 µM (inactive) | > 100 µM (inactive) | > 100 | > 100 µM (inactive) | – | > 100 µM (inactive) | 50.1 µM (inactive) | > 100 µM (inactive) | > 100 µM (inactive) | > 100 µM (inactive) | > 100 µM (inactive) | 44.9 µM (inactive) | 55.3 µM (inactive) | > 100 µM (inactive) |
| O=C1OC(c2ccccc2)N(C(=O)c2ccccc2)C1Cc1ccc(OCc2ccccc2)cc1 (stereo not given) | > 100 µM (inactive) | > 100 µM (inactive) | 2.6 µM (inactive) | – | > 100 µM (inactive) | > 100 µM (inactive) | 19.9 µM (inactive) | > 100 µM (inactive) | > 100 | > 100 µM (inactive) | 5.48 µM (inactive) | 8.11 µM (inactive) | 33.1 µM (inactive) | 9.57 µM (inactive) | > 100 µM (inactive) | 9.42 µM (inactive) | > 100 µM (inactive) | – | – | 34.8 µM (inactive) |
| COc1ccc(NCn2nc(CCCCCCCCc3nn(CNc4ccc(OC)cc4)c(=S)o3)oc2=S)cc1 | > 100 µM (inactive) | > 100 µM (inactive) | > 100 µM (inactive) | > 100 µM (inactive) | – | 21 µM (inactive) | > 100 µM (inactive) | – | > 100 | > 100 µM (inactive) | > 100 µM (inactive) | – | > 100 µM (inactive) | > 100 µM (inactive) | > 100 µM (inactive) | > 100 µM (inactive) | > 100 µM (inactive) | > 100 µM (inactive) | > 100 µM (inactive) | > 100 µM (inactive) |
| Cc1nnc([C@@]2(C)CC[C@H]3[C@@H](CC=C4C[C@@H](O)CC[C@@]43C)[C@@H]2CC#N)o1 | > 100 µM (inactive) | > 100 µM (inactive) | > 100 µM (inactive) | 97.5 µM (inactive) | > 100 µM (inactive) | > 100 µM (inactive) | > 100 µM (inactive) | – | > 100 | > 100 µM (inactive) | > 100 µM (inactive) | > 100 µM (inactive) | > 100 µM (inactive) | > 100 µM (inactive) | > 100 µM (inactive) | > 100 µM (inactive) | > 100 µM (inactive) | > 100 µM (inactive) | > 100 µM (inactive) | > 100 µM (inactive) |
| Cn1c(N=[N+]=[N-])cc(=O)n(C)c1=O | > 100 µM (inactive) | > 100 µM (inactive) | > 100 µM (inactive) | > 100 µM (inactive) | > 100 µM (inactive) | > 100 µM (inactive) | > 100 µM (inactive) | > 100 µM (inactive) | > 100 | > 100 µM (inactive) | – | > 100 µM (inactive) | > 100 µM (inactive) | > 100 µM (inactive) | > 100 µM (inactive) | > 100 µM (inactive) | > 100 µM (inactive) | > 100 µM (inactive) | > 100 µM (inactive) | > 100 µM (inactive) |
| CC1=NNC(=O)C1C(CC(=O)c1c[nH]c2ccccc12)C(=O)O (stereo not given) | > 100 µM (inactive) | > 100 µM (inactive) | > 100 µM (inactive) | > 100 µM (inactive) | 28.6 µM (inactive) | > 100 µM (inactive) | > 100 µM (inactive) | 76 µM (inactive) | 92.9 | > 100 µM (inactive) | – | 97.3 µM (inactive) | > 100 µM (inactive) | > 100 µM (inactive) | 36.1 µM (inactive) | > 100 µM (inactive) | > 100 µM (inactive) | > 100 µM (inactive) | > 100 µM (inactive) | > 100 µM (inactive) |
| c1ccc2c(c1)SCCCS2 | > 100 µM (inactive) | > 100 µM (inactive) | > 100 µM (inactive) | > 100 µM (inactive) | > 100 µM (inactive) | > 100 µM (inactive) | > 100 µM (inactive) | > 100 µM (inactive) | > 100 | > 100 µM (inactive) | > 100 µM (inactive) | > 100 µM (inactive) | > 100 µM (inactive) | > 100 µM (inactive) | > 100 µM (inactive) | > 100 µM (inactive) | > 100 µM (inactive) | – | – | > 100 µM (inactive) |
| COc1ccc(CC2c3cc(OC)c(OC)cc3CC[N+]2(C)C)cc1OC (stereo not given) | – | > 100 µM (inactive) | > 100 µM (inactive) | > 100 µM (inactive) | > 100 µM (inactive) | > 100 µM (inactive) | > 100 µM (inactive) | > 100 µM (inactive) | > 100 | > 100 µM (inactive) | > 100 µM (inactive) | > 100 µM (inactive) | > 100 µM (inactive) | > 100 µM (inactive) | > 100 µM (inactive) | – | > 100 µM (inactive) | > 100 µM (inactive) | – | > 100 µM (inactive) |
| O=c1cc(NNc2cccc(F)c2)[nH]c(=S)[nH]1 | > 100 µM (inactive) | > 100 µM (inactive) | > 100 µM (inactive) | > 100 µM (inactive) | – | > 100 µM (inactive) | > 100 µM (inactive) | – | 54.1 | > 100 µM (inactive) | 61.5 µM (inactive) | 49.3 µM (inactive) | 44.3 µM (inactive) | > 100 µM (inactive) | 61.4 µM (inactive) | > 100 µM (inactive) | > 100 µM (inactive) | – | – | > 100 µM (inactive) |
| NC(=O)C1Cc2cc3c(cc21)OCO3 (stereo not given) | > 100 µM (inactive) | – | > 100 µM (inactive) | > 100 µM (inactive) | – | > 100 µM (inactive) | > 100 µM (inactive) | – | > 100 | > 100 µM (inactive) | > 100 µM (inactive) | > 100 µM (inactive) | > 100 µM (inactive) | > 100 µM (inactive) | – | > 100 µM (inactive) | > 100 µM (inactive) | > 100 µM (inactive) | > 100 µM (inactive) | > 100 µM (inactive) |
